Measured values: article PMC3575251, “Urease inhibitory activities of β-boswellic acid derivatives” (DARU Journal of Pharmaceutical Sciences, 2013)

Target: T1, Jack bean urease (Canavalia ensiformis, UniProt P07374)
T1 construct: purchased Fluka Co, Switzerland
Assay: biochemical
Details: for inhibition at 50 µg/mL: read-out: Percent of inhibition (50 μg/ml)
Procedure: For urease inhibition assays after addition of phosphate buffer pH = 6.8, sonication was performed for 3 min, followed by centrifugation and evaluating absorbance of upper solution in λ = 278 nm which is attributed to the urease. By using following equation […], where c is the concentration of solution (mol/L), b the Length of the UV cell, we can calculate the concentration of initially urease solution in this way. After appropriate dilution, the concentration of enzyme solution adjusted 2 mg/ml.
The assay mixture, containing 50 μl (2 mg/ml) of Jack-bean urease and 100 μl of different concentration of test compounds, which were dissolved in ethanol 20% previously, was added to 850 μl of 25mM urea and pre-incubated for 0.5 h in water bath at 37°C. The urease reaction was stopped after 30 min incubation by following procedure.
Urease activity was determined by measuring ammonia production using the indophenol method as described by Weatherburn. After pre-incubation, 500 μl of phenol reagent (1% w/v phenol and 0.005% w/v sodium nitroprusside) and 500 μl of alkali reagent (1% w/v NaOH and 0.075% active chloride NaOCl) were added to 100 μl of incubation mixture and kept at 37°C for 30 min.
The absorbance was measured at 625 nm. […] Percentage inhibitions were calculated using the formula (100 – (OD sample / OD control) × 100).
The concentration that provokes an inhibition halfway between the minimum and maximum response of each compound (relative IC50) was determined by monitoring the inhibition effect of various concentrations of compounds in the assay. The IC50 values were then calculated using GraphPad Prism 5 software.

T1 sequence (P07374 whole entry, looked up): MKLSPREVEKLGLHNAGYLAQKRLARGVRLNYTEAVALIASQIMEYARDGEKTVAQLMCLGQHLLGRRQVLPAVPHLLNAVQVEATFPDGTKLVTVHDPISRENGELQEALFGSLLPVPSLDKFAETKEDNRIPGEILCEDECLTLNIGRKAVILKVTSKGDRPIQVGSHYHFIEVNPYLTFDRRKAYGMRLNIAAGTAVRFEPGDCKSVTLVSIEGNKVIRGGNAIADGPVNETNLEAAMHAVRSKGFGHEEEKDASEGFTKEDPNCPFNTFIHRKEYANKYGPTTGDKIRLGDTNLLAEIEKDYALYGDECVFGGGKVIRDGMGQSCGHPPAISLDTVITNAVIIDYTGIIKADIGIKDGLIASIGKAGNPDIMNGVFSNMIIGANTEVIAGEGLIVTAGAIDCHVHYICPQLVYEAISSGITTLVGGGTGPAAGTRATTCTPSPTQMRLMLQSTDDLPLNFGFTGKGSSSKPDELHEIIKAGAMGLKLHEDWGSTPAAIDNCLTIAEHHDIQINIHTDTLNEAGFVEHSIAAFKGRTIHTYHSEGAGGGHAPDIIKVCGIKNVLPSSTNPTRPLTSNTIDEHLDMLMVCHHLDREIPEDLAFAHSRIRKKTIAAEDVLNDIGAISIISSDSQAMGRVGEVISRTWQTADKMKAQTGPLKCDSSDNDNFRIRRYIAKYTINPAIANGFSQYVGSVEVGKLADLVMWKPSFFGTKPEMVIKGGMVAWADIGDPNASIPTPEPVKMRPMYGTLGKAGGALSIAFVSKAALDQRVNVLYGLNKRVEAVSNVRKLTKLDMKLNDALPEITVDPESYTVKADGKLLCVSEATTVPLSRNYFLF

Compound | IC50 [µM] | inhibition at 50 µg/mL [%] | Percent of inhibition (50 μg/ml) (50 μg/ml test compound, Jack bean urease, 25 mM urea, 37°C) [%]
CC(=O)OC1CCC2(C)C(CCC3(C)C2C(O)C=C2C4C(C)C(C)CCC4(C)CCC23C)C1(C)C(=O)O (stereo not drawn) [compound 2, 3-O-acetyl-11-hydroxy-β-boswellic acid] | 9.21 ± 0.069 | 56.2 | 
C[C@H]1[C@H](C)CC[C@]2(C)CC[C@]3(C)C(=CC(=O)[C@@H]4[C@@]5(C)CC[C@@H](O)[C@](C)(C(=O)O)[C@@H]5CC[C@]43C)[C@H]12 [compound 4, 11-keto-β-boswellic acid] | 85.23 ± 0.065 | 39.1 | 
NC(N)=S [Thiourea, thiourea, reference compound] |  |  | 88.0
CC(=O)O[C@@H]1CC[C@@]2(C)[C@@H](CC[C@]3(C)[C@@H]2C(=O)C=C2[C@@H]4[C@@H](C)[C@H](C)CC[C@]4(C)CC[C@]23C)[C@@]1(C)C(=O)O [compound 3, 3-O-acetyl-11-keto-β-boswellic acid] | 16.34 ± 0.063 | 37.4 | 
